# Assay: Solubility of anhydrous docetaxel in PEG 300 / PEG 400
# Format: physicochemical
# Conditions: per 1 g PEG 300; ultrasonic dispersion for 5 minutes at 70-80° C.
# Method: Formulations of anhydrous docetaxel and either PEG 400 or PEG 300 were prepared and mixed using ultrasonic dispersion for 5 minutes at 70-80° C. 1 g of PEG 400 dissolved 25 mg of anhydrous docetaxel. […] 1 g of PEG 300 dissolved 100 mg of anhydrous docetaxel. Accordingly, PEG 300 was able to better solubilize anhydrous docetaxel.
smiles,measurement,value
"CC(=O)O[C@@]12CO[C@@H]1C[C@H](O)[C@@]1(C)C(=O)[C@H](O)C3=C(C)[C@@H](OC(=O)[C@H](O)[C@@H](NC(=O)OC(C)(C)C)c4ccccc4)C[C@@](O)([C@@H](OC(=O)c4ccccc4)[C@H]21)C3(C)C [anhydrous docetaxel, (2R,3S)—N-carboxy-3-phenylisoserine,Ntert-butyl ester, 13-ester with 5β-20-epoxy-1,2α,4,7β,10β,13α-hexahydroxytax-11-en-9-one 4-acetate 2-benzoate]",amount of anhydrous docetaxel dissolved by 1 g of PEG 300,≥ 100 mg
